Laboratory results as given in patent publication US20250295690A1, “ORAL FORMULATION BASED ON A PRE-ESTABLISHED ASSOCIATION OF SULODEXIDE AND FLAVONOIDS FOR THE TREATMENT OF CHRONIC VENOUS INSUFFICIENCY AND PREVENTION OF COMPLICATIONS THEREOF” (priority 2021, published 2025).

Experiments:
[1] = system: human micro-vascular endothelial cells (HMVEC); test: In vitro vascular permeability assay on a VEGF-treated HMVEC monolayer (FITC-dextran); assay type: cell-based; conditions: HMVEC line, 50 ng/ml, 8 hours
Method: (§1) The direct effect on the vasal permeability of three compositions comprising Sulodexide+flavonoids was evaluated in vitro:
(§2) All tested compositions (i)-(iii) comprise a concentration of sulodexide equal to 0.25% and a concentration of diosmin, hesperidin or troxerutin, respectively, equal to 4.5% by weight with respect to the total weight of the composition.
(§3) The action of the compositions (i)-(iii) was compared with the action of the active principles Diosmin, Hesperidin, Troxerutin, 8% by weight, and glucosaminoglycan Sulodexide, 0.5% by weight, administered singularly.
(§4) The direct effect on the vasal permeability was evaluated by using endothelial cellular cultures miming the continuous mono-layer of the endothelium of the human vessels. Two cellular models were used: the human micro-vascular endothelial cells (HMVEC) to simulate the vessels of the microcirculation, and the human umbilical vein endothelial cells (HUVEC) to study the vasal endothelium. The cells of the lines HMVEC and HUVEC (3×10^5) were incubated for 72 hours at 37° C. on supports of semi-permeable membrane with pores having 1-μm diameter so as to form a continuous mono-layer wholly impermeable to the substance used as control, the fluorescein isothiocyanate (FITC) dextran. The vasal permeability was evaluated with the kit “The Millipore® In Vitro Vascular Permeability Assay”. […]

[2] = system: human umbilical vein endothelial cells (HUVEC); test: In vitro vascular permeability assay on a VEGF-treated HUVEC monolayer (FITC-dextran); assay type: cell-based; conditions: 50 ng/ml, 8 hours
Method: as §1, §2, §3, §4

VEGF
increase in permeability [1]: 36%
increase in permeability [2]: 42%
